Measurements from patent US12077503B2, “Substituted cyclic amides and their use as herbicides” (FMC CORPORATION, priority 2015, dated 2024).

Legend:
Type in all cases: in vivo
[1] = test system: giant foxtail (Setaria faberii); test: Test A preemergence; conditions: Setaria faberi, pre-emergence, 240 h, 0 to 100 scale where 0 is no effect and 100 is complete control, read-out: Foxtail, Giant plant response rating
In short: (§1)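 Seeds sprayed preemergence with a directed soil spray, or plants at 2 to 10 cm height and one- to two-leaf stage sprayed postemergence, with test chemicals in a non-phytotoxic solvent mixture containing surfactant, in loam soil–sand blend. Injury rated visually against untreated controls after about 10 d in greenhouse, 0 (no effect) to 100 (complete control).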

[2] = test system: ryegrass, Italian (Italian ryegrass, Lolium multiflorum); test: Test A preemergence; conditions: Lolium multiflorum, pre-emergence, 240 h, 0 to 100 scale where 0 is no effect and 100 is complete control, read-out: Ryegrass, Italian plant response rating
In short: as §1

[3] = test system: barnyardgrass (Echinochloa crus-galli); test: Test A preemergence; conditions: Echinochloa crus-galli, pre-emergence, 240 h, 0 to 100 scale where 0 is no effect and 100 is complete control, read-out: Barnyardgrass plant response rating
In short: as §1

Kochia (Kochia scoparia) [4] = test: Test A preemergence; conditions: Bassia scoparia, pre-emergence, 240 h, 0 to 100 scale where 0 is no effect and 100 is complete control, read-out: Kochia plant response rating
In short: as §1

[5] = test system: ragweed (common ragweed, Ambrosia elatior); test: Test A preemergence; conditions: Ambrosia artemisiifolia, pre-emergence, 240 h, 0 to 100 scale where 0 is no effect and 100 is complete control, read-out: Ragweed plant response rating
In short: as §1

[6] = test system: pigweed (Amaranthus retroflexus); test: Test A preemergence; conditions: Amaranthus retroflexus, pre-emergence, 240 h, 0 to 100 scale where 0 is no effect and 100 is complete control, read-out: Pigweed plant response rating
[7] = test system: giant foxtail (Setaria faberii); test: Test A postemergence; conditions: Setaria faberi, post-emergence, 240 h, read-out: Foxtail, Giant plant response rating (0 to 100 scale)
In short: as §1

[8] = test system: ryegrass, Italian (Italian ryegrass, Lolium multiflorum); test: Test A postemergence; conditions: Lolium multiflorum, post-emergence, 240 h, read-out: Ryegrass, Italian plant response rating (0 to 100 scale)
In short: as §1

[9] = test system: barnyardgrass (Echinochloa crus-galli); test: Test A postemergence; conditions: Echinochloa crus-galli, post-emergence, 240 h, read-out: Barnyardgrass plant response rating (0 to 100 scale)
In short: as §1

Kochia (Kochia scoparia) [10] = test: Test A postemergence; conditions: Bassia scoparia, post-emergence, 240 h, read-out: Kochia plant response rating (0 to 100 scale)
In short: as §1

corn (Zea mays) = test: Test A postemergence; conditions: Zea mays, post-emergence, 240 h, read-out: Corn plant response rating (0 to 100 scale)
In short: as §1

[11] = test system: Galium (catchweed bedstraw, Galium aparine); test: Test A postemergence; conditions: Galium, post-emergence, 240 h, read-out: Galium plant response rating (0 to 100 scale)
In short: as §1

[12] = test system: blackgrass (Alopecurus myosuroides); test: Test A postemergence; conditions: Alopecurus myosuroides, post-emergence, 240 h, read-out: Blackgrass plant response rating (0 to 100 scale)
In short: as §1

[13] = test system: ragweed (common ragweed, Ambrosia elatior); test: Test A postemergence; conditions: Ambrosia artemisiifolia, post-emergence, 240 h, read-out: Ragweed plant response rating (0 to 100 scale)
In short: as §1

[14] = test system: pigweed (Amaranthus retroflexus); test: Test A postemergence; conditions: Amaranthus retroflexus, post-emergence, 240 h, read-out: Pigweed plant response rating (0 to 100 scale)
In short: as §1

[15] = test system: wheat (Triticum aestivum); test: Test A postemergence; conditions: Triticum aestivum, post-emergence, 240 h, read-out: Wheat plant response rating (0 to 100 scale)
In short: as §1

[16] = test system: ducksalad (Heteranthera limosa); test: Test B flooded paddy test; conditions: Heteranthera limosa, 250 g ai/ha, Flood; 0 to 100 scale where 0 is no effect and 100 is complete control; read-out: Ducksalad plant response rating
In short: (§2)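 2-leaf plants; pots flooded 3 cm over soil; cpd added to paddy water; depth held; greenhouse 13–15 d; visual rating vs controls, 0 = no effect, 100 = complete control.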

[17] = test system: barnyardgrass (Echinochloa crus-galli); test: Test B flooded paddy test; conditions: Echinochloa crus-galli, 250 g ai/ha, Flood; 0 to 100 scale where 0 is no effect and 100 is complete control; read-out: Barnyardgrass plant response rating
In short: as §2

rice (Oryra sativa) = test: Test B flooded paddy test; conditions: Oryza sativa, 250 g ai/ha, Flood; 0 to 100 scale where 0 is no effect and 100 is complete control; read-out: Rice plant response rating
In short: as §2

[18] = test system: sedge, umbrella (small-flower umbrella sedge, Cyperus difformis); test: Test B flooded paddy test; conditions: Cyperus difformis, 250 g ai/ha, Flood; 0 to 100 scale where 0 is no effect and 100 is complete control; read-out: Sedge, Umbrella plant response rating
In short: as §2

[19] = 125 g ai/ha, preemergence, visual injury rating, approximately 10 d
[20] = 125 g ai/ha, postemergence, visual injury vs untreated controls after approx. 10 d, 0 = no effect, 100 = complete control
[21] = Postemergence, 31 g ai/ha, 0 is no effect, 100 is complete control

Structure (SMILES): CN1C[C@H](c2ccc(C#N)c(F)c2)[C@@H](C(=O)Nc2cccc(F)c2F)C1=O [Compound 1192]
- pest or weed control at 31 g/ha ([1]; 31 g ai/ha, Preemergence): 30%
- pest or weed control at 125 g/ha [1, 19]: 100%
- pest or weed control at 31 g/ha ([2]; 31 g ai/ha, Preemergence): 0%
- pest or weed control at 125 g/ha [2, 19]: 0%
- pest or weed control at 31 g/ha ([3]; 31 g ai/ha, Preemergence): 70%
- pest or weed control at 125 g/ha [3, 19]: 100%
- pest or weed control at 31 g/ha (Kochia (Kochia scoparia) [4]; 31 g ai/ha, Preemergence): 0%
- pest or weed control at 125 g/ha (Kochia (Kochia scoparia) [4]; [19]): 50%
- pest or weed control at 31 g/ha ([5]; 31 g ai/ha, Preemergence): 0%
- pest or weed control at 125 g/ha [5, 19]: 0%
- pest or weed control at 31 g/ha ([6]; 31 g ai/ha, Preemergence): 0%
- pest or weed control at 125 g/ha [6, 19]: 30%
- pest or weed control at 125 g/ha [7, 20]: 70%
- pest or weed control at 31 g/ha [7, 21]: 40%
- pest or weed control at 125 g/ha [8, 20]: 0%
- pest or weed control at 31 g/ha [8, 21]: 0%
- pest or weed control at 125 g/ha [9, 20]: 100%
- pest or weed control at 31 g/ha [9, 21]: 50%
- pest or weed control at 125 g/ha (Kochia (Kochia scoparia) [10]; [20]): 40%
- pest or weed control at 31 g/ha (Kochia (Kochia scoparia) [10]; [21]): 0%
- plant injury at 125 g/ha (corn (Zea mays); [20]): 40%
- plant injury at 31 g/ha (corn (Zea mays); [21]): 0%
- pest or weed control at 125 g/ha [11, 20]: 50%
- pest or weed control at 31 g/ha [11, 21]: 0%
- pest or weed control at 125 g/ha [12, 20]: 0%
- pest or weed control at 31 g/ha [12, 21]: 0%
- pest or weed control at 125 g/ha [13, 20]: 0%
- pest or weed control at 31 g/ha [13, 21]: 0%
- pest or weed control at 125 g/ha [14, 20]: 20%
- pest or weed control at 31 g/ha [14, 21]: 0%
- plant injury at 125 g/ha [15, 20]: 0%
- plant injury at 31 g/ha [15, 21]: 0%
- pest or weed control at 250 g/ha [16]: 95%
- pest or weed control at 250 g/ha [17]: 100%
- pest or weed control at 250 g/ha (rice (Oryra sativa)): 30%
- pest or weed control at 250 g/ha [18]: 30%
